This note sets out measurements from PubChem BioAssay AID1996.

Values after ≈ are worked out from the molar mass of the structure shown. Some results are limits rather than exact numbers.

For the series the following is noted: buffer; pH 7.4; 200.0 µM.
For orientation: kinetic solubility means the concentration staying in solution when a stock, usually in DMSO, is diluted into the medium. Consider `CCn1cc(C(=O)NCCC(=O)NCCCO)c(=O)c2cc3c(cc21)OCO3`, for which the kinetic solubility is above 58.4 µg/mL.
In the case of `CCOC(=O)NC(=O)CSc1ccc(S(=O)(=O)N2CCCCC2)cn1` it was above 58.1 µg/mL; in that of `COc1ccc(C(=O)Nc2cccc3c2CCCC3)c(OC)c1`, below 0.7 µg/mL.
Under `CSCCC(=O)Nc1nc(-c2ccccn2)cs1` stands above 41.9 µg/mL; under `Cc1cc(NC(=O)COC(=O)C2=COCCO2)c([N+](=O)[O-])cc1C`, 3.7 µg/mL (≈ 11 µM).
In the case of `COc1ccccc1-c1cc(-c2ccc(O)cc2)nc(N)c1C#N` it was 3.7 µg/mL (≈ 11.7 µM).
Molecule `CC(=O)NC(C(=O)c1ccccc1)N1CCCCC1` (stereo unspecified) returned a solubility (kinetic) of 29.1 µg/mL (≈ 112 µM).
In the case of `COCC(C)NC(=S)NCCc1ccc(Cl)cc1Cl` (stereo unspecified) it was above 48.2 µg/mL.
Under `CCOC(=O)c1sc(NC(=O)CN2CC(C)OC(C)C2)nc1C` (stereo unspecified) stands 49 µg/mL (≈ 144 µM); under `O=C(Cc1ccc(Br)cc1)N1CCCC1`, 37.6 µg/mL (≈ 140 µM).
For `CN(C)CCNc1ncnc2sc(-c3ccccc3)cc12`, the kinetic solubility is 39.7 µg/mL (≈ 133 µM). This solubility kinetic and that of the molecule before are within 1.5-fold of each other.
On to `Cc1ccc2c(c1)C(=O)C(=O)N2CCCOc1ccccc1C`, for which the kinetic solubility stood at 4.9 µg/mL (≈ 15.8 µM).
In the case of `O=C(NCCCn1ccnc1)c1ccc(Br)s1` it was 46.9 µg/mL (≈ 149 µM).
Consider `O=C(CN1CCCCCC1)Nc1ccc([N+](=O)[O-])cc1Cl`, for which the kinetic solubility was determined as 1.1 µg/mL (≈ 3.53 µM).
Under `O=C(c1cc([N+](=O)[O-])cc([N+](=O)[O-])c1)N1CCN(C(=O)c2ccco2)CC1` stands 54 µg/mL (≈ 144 µM); under `Nc1nc(Nc2cccc(Cl)c2)nc(NCc2ccco2)c1[N+](=O)[O-]`, 3 µg/mL (≈ 8.32 µM); under `O=C(NC1CCCCCC1)c1ccc[nH]c1=S`, above 37.6 µg/mL.
The molecule `O=C(CC(=O)Nc1ccc(F)cc1)Nc1ccc(F)cc1` yielded a kinetic solubility of 3.1 µg/mL (≈ 10.7 µM).
`CSc1ncc(CN2CCc3c([nH]c4ccccc34)C2C(C)(C)C)cn1` (stereo unspecified): the solubility (kinetic) came out at 19.5 µg/mL (≈ 53.2 µM).
Under `Cc1ccc(NC(=O)CN(C)C(=O)COc2cccc3cccnc23)cc1` stands 52.4 µg/mL (≈ 144 µM); under `CCOC(=O)C1=C(C)N=C2SCCC(=O)N2[C@@H]1c1cccs1`, 39.1 µg/mL (≈ 116 µM).
Under `COc1cc2c(cc1OC)CN(CC(=O)Nc1ccc(F)cc1)CC2` stands 39 µg/mL (≈ 113 µM).
`O=S(=O)(NCc1ccc2c(c1)OCO2)c1cccc(F)c1` gave a solubility (kinetic) above 46.4 µg/mL.
In the case of `O=C(NC1CC2CCCC(C1)N2C(=O)Nc1ccccc1Cl)C1CC1` (stereo unspecified) it was above 54.3 µg/mL; in that of `CCn1c(SCC(=O)Nc2nccc(C)n2)nc2ccccc21`, above 49.1 µg/mL.
In the case of `C=CCNC(=O)c1ccc(S(=O)(=O)CC)c(Cl)c1Cl` it was above 48.3 µg/mL.
In the case of `O=[N+]([O-])c1cccnc1Oc1ccc(F)cc1` it was 31.6 µg/mL (≈ 135 µM); in that of `Cc1cccnc1NC(=O)c1ccc2c(c1)NC(=O)C(C)S2` (stereo unspecified), above 47 µg/mL.
In turn, `COc1ccccc1/C=C/C1NC(=O)NC(C)=C1C(=O)OC(C)C` (stereo unspecified) registered a solubility (kinetic) of 0.4 µg/mL (≈ 1.21 µM).
Under `O=C(CCc1ccccc1)NCC(=O)N/N=C/c1ccc(O)cc1O` stands above 51.2 µg/mL; under `Cc1coc(C)c1C(=O)Nc1ccc2ccccc2c1`, 2.5 µg/mL (≈ 9.42 µM); under `Cc1nc2ccccc2n1CC(=O)OCC(=O)N1CCC(C)CC1`, above 49.4 µg/mL.
For the molecule `CCn1ccnc1CN1CCN(CCC(C)C)C(CCO)C1` (stereo unspecified), the solubility (kinetic) is above 46.3 µg/mL.
Under `CC(=O)n1cc(C=C2C(=O)NC(=O)NC2=O)c2ccccc21` stands 27.5 µg/mL (≈ 92.5 µM); under `COc1cccc(C(=O)Oc2ccc(N3C(=O)CCC3=O)c(C)c2)c1`, above 50.9 µg/mL; under `CN(C)CCC(O)c1ccccc1` (stereo unspecified), 13.3 µg/mL (≈ 74.2 µM).
In the case of `O=C(/C(=C(\O)c1ccccc1)c1nc2ccccc2[nH]1)c1ccccc1`, the kinetic solubility was below 0.4 µg/mL.
Under `CC(=O)Nc1ccc(C(=O)NCCCOC(C)C)cc1` stands 39.6 µg/mL (≈ 142 µM).
In the case of `N=C1SCC(=O)N1c1ccc(Cl)cc1` it was above 34 µg/mL.
Under `Cc1cc(=O)oc2cc(OCC(=O)N3CCN(Cc4ccccc4)CC3)ccc12` stands 56.7 µg/mL (≈ 144 µM).
As for `O=C(O)c1ccc(NC(=O)c2ccco2)c(NC(=O)c2ccco2)c1`, the kinetic solubility is above 51 µg/mL.
Under `COc1ccc(-n2cnc3sccc3c2=O)cc1` stands 35.8 µg/mL (≈ 139 µM); under `O=C(Sc1ccc(Cl)cc1)c1ccccn1`, 1.7 µg/mL (≈ 6.81 µM).
`Cc1cccc(C)c1NC(=O)Cc1cccs1` displayed a kinetic solubility above 36.8 µg/mL.
Under `CC(C)CNC(=O)C(=O)Nc1cc2c3c(c1)C(C)C(=O)N3CCC2` (stereo unspecified) stands 42.7 µg/mL (≈ 130 µM); under `C=CCOc1ccc(C2NC(=O)c3ccccc3O2)cc1OCC` (stereo unspecified), 2.6 µg/mL (≈ 7.99 µM).
Under `CCCCCC(=O)Nc1ncc2c(n1)CC(c1cccs1)CC2=O` (stereo unspecified) stands 4.4 µg/mL (≈ 12.8 µM); under `CCN(C(=O)CSc1nc2ccc(Cl)cc2[nH]1)C1CCS(=O)(=O)C1` (stereo unspecified), above 58.2 µg/mL.
Take `CN(C)c1cc(-c2ccc(Br)cc2)oc(=O)c1Cl`: the kinetic solubility came out at 1.1 µg/mL (≈ 3.35 µM).
`CCCCN(CC)C(=O)c1ccc(Cl)cc1` had a solubility (kinetic) of 29.5 µg/mL (≈ 123 µM). Compared with the last molecule, the solubility kinetic is about 27-fold higher.
In turn, `CCOc1ccc(N2C(=O)CC(Cc3cc(C)cc(C)c3)C2=O)cc1` (stereo unspecified) gave a solubility (kinetic) of 4 µg/mL (≈ 11.9 µM).
